# In ChEMBL document CHEMBL2407052, “7-Substituted-sulfocoumarins are isoform-selective, potent carbonic anhydrase II inhibitors” (Bioorg Med Chem, 2013):
# Calls of active or inactive are those of the source. The rule behind the calls is not given here.
# Biological target: T1, Carbonic anhydrase 9 (Homo sapiens, UniProt Q16790)
# Experiment: Inhibition of human transmembrane carbonic anhydrase 9 up to 50 uM after 6 hrs by stopped flow CO2 hydrase assay
row,Compound,inhibition
1,CS(=O)(=O)Oc1ccc2c(c1)OS(=O)(=O)C=C2,inactive
2,O=C(Cc1ccccc1Br)Oc1ccc2c(c1)OS(=O)(=O)C=C2,inactive
3,O=S1(=O)C=Cc2ccc(OCc3ccccc3)cc2O1,inactive
4,O=S1(=O)CCc2ccc(O)cc2O1,inactive
5,COc1ccc2c(c1)OS(=O)(=O)C=C2,inactive
6,O=S1(=O)CCc2ccc(OCc3ccccc3)cc2O1,inactive
7,CC(=O)Oc1ccc2c(c1)OS(=O)(=O)C=C2,inactive
8,CS(=O)(=O)Oc1ccc2c(c1)OS(=O)(=O)CC2,inactive
9,COc1ccc2c(c1)OS(=O)(=O)CC2,inactive
10,O=S1(=O)CC(O)c2ccc(OCc3ccccc3)cc2O1 (racemic),inactive
11,O=S1(=O)C=Cc2ccc(O)cc2O1,inactive
12,O=C(Cc1ccc(Cl)cc1)Oc1ccc2c(c1)OS(=O)(=O)CC2,inactive
13,O=C(Cc1ccccc1Br)Oc1ccc2c(c1)OS(=O)(=O)CC2,inactive
14,O=S1(=O)CC(O)c2ccc(O)cc2O1 (stereo not given),inactive
15,O=C(Cc1ccc(Cl)cc1)Oc1ccc2c(c1)OS(=O)(=O)C=C2,inactive
16,CC(=O)Oc1ccc2c(c1)OS(=O)(=O)CC2,inactive

# Biological target: T2, Carbonic anhydrase 1 (Homo sapiens, UniProt P00915)
# Experiment: Inhibition of human cytosolic carbonic anhydrase 1 up to 50 uM after 6 hrs by stopped flow CO2 hydrase assay
# Target sequence in this assay (P00915 2-261 limits assumed): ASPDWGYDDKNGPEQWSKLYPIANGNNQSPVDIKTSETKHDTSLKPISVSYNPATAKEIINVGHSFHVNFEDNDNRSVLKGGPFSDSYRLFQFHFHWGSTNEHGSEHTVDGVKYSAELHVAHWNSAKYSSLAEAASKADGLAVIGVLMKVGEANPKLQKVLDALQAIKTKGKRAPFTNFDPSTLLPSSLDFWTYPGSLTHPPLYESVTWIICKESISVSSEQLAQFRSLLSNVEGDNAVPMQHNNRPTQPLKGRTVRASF
row,Compound,inhibition
1,CS(=O)(=O)Oc1ccc2c(c1)OS(=O)(=O)C=C2,inactive
2,O=C(Cc1ccccc1Br)Oc1ccc2c(c1)OS(=O)(=O)C=C2,inactive
3,O=S1(=O)C=Cc2ccc(OCc3ccccc3)cc2O1,inactive
4,O=S1(=O)CCc2ccc(O)cc2O1,inactive
5,COc1ccc2c(c1)OS(=O)(=O)C=C2,inactive
6,O=S1(=O)CCc2ccc(OCc3ccccc3)cc2O1,inactive
7,CC(=O)Oc1ccc2c(c1)OS(=O)(=O)C=C2,inactive
8,CS(=O)(=O)Oc1ccc2c(c1)OS(=O)(=O)CC2,inactive
9,COc1ccc2c(c1)OS(=O)(=O)CC2,inactive
10,O=S1(=O)CC(O)c2ccc(OCc3ccccc3)cc2O1 (racemic),inactive
11,O=S1(=O)C=Cc2ccc(O)cc2O1,inactive
12,O=C(Cc1ccc(Cl)cc1)Oc1ccc2c(c1)OS(=O)(=O)CC2,inactive
13,O=C(Cc1ccccc1Br)Oc1ccc2c(c1)OS(=O)(=O)CC2,inactive
14,O=S1(=O)CC(O)c2ccc(O)cc2O1 (stereo not given),inactive
15,O=C(Cc1ccc(Cl)cc1)Oc1ccc2c(c1)OS(=O)(=O)C=C2,inactive
16,CC(=O)Oc1ccc2c(c1)OS(=O)(=O)CC2,inactive

# Biological target: Carbonic anhydrase 12 (Homo sapiens, UniProt O43570)
# Sequence (O43570 whole entry): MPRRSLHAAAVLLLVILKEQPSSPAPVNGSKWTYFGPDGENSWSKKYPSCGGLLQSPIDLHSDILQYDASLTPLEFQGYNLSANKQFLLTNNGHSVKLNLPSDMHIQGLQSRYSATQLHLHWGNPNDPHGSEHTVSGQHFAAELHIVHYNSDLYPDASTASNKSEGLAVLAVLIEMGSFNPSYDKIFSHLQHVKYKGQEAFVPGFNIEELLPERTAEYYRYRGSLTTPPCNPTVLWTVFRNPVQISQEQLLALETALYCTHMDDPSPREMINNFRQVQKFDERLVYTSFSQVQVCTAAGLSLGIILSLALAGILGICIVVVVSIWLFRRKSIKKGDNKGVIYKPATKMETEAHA
# Experiment: Inhibition of human transmembrane carbonic anhydrase 12 after 6 hrs by stopped flow CO2 hydrase assay
row,Compound,Ki [µM]
1,CS(=O)(=O)Oc1ccc2c(c1)OS(=O)(=O)C=C2,> 10
2,O=C(Cc1ccccc1Br)Oc1ccc2c(c1)OS(=O)(=O)C=C2,> 10
3,O=S1(=O)C=Cc2ccc(OCc3ccccc3)cc2O1,> 10
4,O=S1(=O)CCc2ccc(O)cc2O1,> 10
5,COc1ccc2c(c1)OS(=O)(=O)C=C2,> 10
6,O=S1(=O)CCc2ccc(OCc3ccccc3)cc2O1,> 10
7,CC(=O)Oc1ccc2c(c1)OS(=O)(=O)C=C2,> 10
8,CS(=O)(=O)Oc1ccc2c(c1)OS(=O)(=O)CC2,> 10
9,COc1ccc2c(c1)OS(=O)(=O)CC2,> 10
10,O=S1(=O)CC(O)c2ccc(OCc3ccccc3)cc2O1 (racemic),> 10
11,O=S1(=O)C=Cc2ccc(O)cc2O1,> 10
12,O=C(Cc1ccc(Cl)cc1)Oc1ccc2c(c1)OS(=O)(=O)CC2,> 10
13,O=C(Cc1ccccc1Br)Oc1ccc2c(c1)OS(=O)(=O)CC2,> 10
14,O=S1(=O)CC(O)c2ccc(O)cc2O1 (stereo not given),> 10
15,O=C(Cc1ccc(Cl)cc1)Oc1ccc2c(c1)OS(=O)(=O)C=C2,> 10
16,CC(=O)Oc1ccc2c(c1)OS(=O)(=O)CC2,> 10

# Biological target: T1, Carbonic anhydrase 9
# Experiment: Inhibition of human transmembrane carbonic anhydrase 9 after 6 hrs by stopped flow CO2 hydrase assay
row,Compound,Ki [µM]
1,CS(=O)(=O)Oc1ccc2c(c1)OS(=O)(=O)C=C2,> 10
2,O=C(Cc1ccccc1Br)Oc1ccc2c(c1)OS(=O)(=O)C=C2,> 10
3,O=S1(=O)C=Cc2ccc(OCc3ccccc3)cc2O1,> 10
4,O=S1(=O)CCc2ccc(O)cc2O1,> 10
5,COc1ccc2c(c1)OS(=O)(=O)C=C2,> 10
6,O=S1(=O)CCc2ccc(OCc3ccccc3)cc2O1,> 10
7,CC(=O)Oc1ccc2c(c1)OS(=O)(=O)C=C2,> 10
8,CS(=O)(=O)Oc1ccc2c(c1)OS(=O)(=O)CC2,> 10
9,COc1ccc2c(c1)OS(=O)(=O)CC2,> 10
10,O=S1(=O)CC(O)c2ccc(OCc3ccccc3)cc2O1 (racemic),> 10
11,O=S1(=O)C=Cc2ccc(O)cc2O1,> 10
12,O=C(Cc1ccc(Cl)cc1)Oc1ccc2c(c1)OS(=O)(=O)CC2,> 10
13,O=C(Cc1ccccc1Br)Oc1ccc2c(c1)OS(=O)(=O)CC2,> 10
14,O=S1(=O)CC(O)c2ccc(O)cc2O1 (stereo not given),> 10
15,O=C(Cc1ccc(Cl)cc1)Oc1ccc2c(c1)OS(=O)(=O)C=C2,> 10
16,CC(=O)Oc1ccc2c(c1)OS(=O)(=O)CC2,> 10

# Biological target: T2, Carbonic anhydrase 1
# Experiment: Inhibition of human cytosolic carbonic anhydrase 1 after 6 hrs by stopped flow CO2 hydrase assay
# Target sequence in this assay (P00915 whole entry): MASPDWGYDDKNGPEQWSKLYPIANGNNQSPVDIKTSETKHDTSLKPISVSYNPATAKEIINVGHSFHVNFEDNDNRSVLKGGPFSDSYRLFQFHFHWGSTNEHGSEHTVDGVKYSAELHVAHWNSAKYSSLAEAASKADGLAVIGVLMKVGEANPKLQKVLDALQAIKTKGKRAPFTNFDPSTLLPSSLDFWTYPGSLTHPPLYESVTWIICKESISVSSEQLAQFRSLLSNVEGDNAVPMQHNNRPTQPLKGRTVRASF
row,Compound,Ki [µM]
1,CS(=O)(=O)Oc1ccc2c(c1)OS(=O)(=O)C=C2,> 10
2,O=C(Cc1ccccc1Br)Oc1ccc2c(c1)OS(=O)(=O)C=C2,> 10
3,O=S1(=O)C=Cc2ccc(OCc3ccccc3)cc2O1,> 10
4,O=S1(=O)CCc2ccc(O)cc2O1,> 10
5,COc1ccc2c(c1)OS(=O)(=O)C=C2,> 10
6,O=S1(=O)CCc2ccc(OCc3ccccc3)cc2O1,> 10
7,CC(=O)Oc1ccc2c(c1)OS(=O)(=O)C=C2,> 10
8,CS(=O)(=O)Oc1ccc2c(c1)OS(=O)(=O)CC2,> 10
9,COc1ccc2c(c1)OS(=O)(=O)CC2,> 10
10,O=S1(=O)CC(O)c2ccc(OCc3ccccc3)cc2O1 (racemic),> 10
11,O=S1(=O)C=Cc2ccc(O)cc2O1,> 10
12,O=C(Cc1ccc(Cl)cc1)Oc1ccc2c(c1)OS(=O)(=O)CC2,> 10
13,O=C(Cc1ccccc1Br)Oc1ccc2c(c1)OS(=O)(=O)CC2,> 10
14,O=S1(=O)CC(O)c2ccc(O)cc2O1 (stereo not given),> 10
15,O=C(Cc1ccc(Cl)cc1)Oc1ccc2c(c1)OS(=O)(=O)C=C2,> 10
16,CC(=O)Oc1ccc2c(c1)OS(=O)(=O)CC2,> 10
